In US9415069B2, “Immunosuppressive cells and methods of making and using thereof” (National Health Research Institutes, priority 2012, dated 2016):

How the values were obtained:
[1] = tested on: human monocyte-derived dendritic cells (MDDCs); assay: Surface marker phenotype of human MDDCs by flow cytometry; assay type: cell-based
Description: Human monocyte-derived dendritic cells (MDDCs) were generated from leukaphereses obtained from healthy donors. Peripheral blood mononuclear cells (PBMCs) were purified by Fycoll-Hypaque Plus (GE Health-Pharmacia, Uppsala, Sweden) density centrifugation. CD14^+ monocytes were isolated using the human CD14^+ Cell Isolation Kit (MACS, Miltenyi Biotec, Inc., Auburn, Calif., USA) according to the manufacturer's instructions. The purified CD14^+ cells (1×10^6/mL) were subsequently cultured in 2 mL MSC-CM or α-MEM completed medium with 10% pooled AB-type human serum supplemented with rhGM-CSF (80 ng/mL) and rhIL-4 (80 ng/mL) (Peprotech, NJ) in the presence or absence of GRO chemokines to induce their differentiation into DCs. An additional 1 mL of medium containing the same concentrations of rhGM-CSF and rhIL-4 with or without GRO chemokines was added to each group of cells on day 3. Half-volume of culture medium was replaced with an equal volume of fresh medium containing the same concentrations of rhGM-CSF and rhIL-4 on day 5. Maturation of MDDCs (mature DCs, mMDDCs) was induced by adding 1 μg/mL LPS to the culture medium of iMDDCs on day 5 and cells were further cultured for another 48 hours. Phenotypic changes in immature DCs (iMDDCs) and mature DCs (mMDDCs) were monitored by FACS analysis on day 7. The study protocols were approved by the Institutional Review Board of Human Subject Research Ethics Committee of Academia Sinica (AS-IRB01-10113) and the Institutional Review Board of Research Ethics Committee of National Health Research Institutes (EC 1001101).
The phenotypic profiles of monocytes, iMDDCs and mMDDCs were obtained by staining 1×10^5 cells with fluorochrome-labeled antibodies (Abs) against CD11c, HLA-DR, CD80, CD86, CD83, CD40, and DC-SIGN. The fluorescence intensity was measured by flow cytometry. The corresponding isotype-matched controls used were FITC-IgG1, FITC-IgG2a, PE-IgG2a, and PE-IgG2b (BD Biosciences, San Jose, Calif., USA). Surface-labeled cells were analyzed using a FACS Calibur-flow cytometer (BD Biosciences). For cell purification, sorting was performed on a FACS Aria cell sorter (BD Biosciences). The purity of individual sorted cell populations was greater than 95%.

immature MDDCs (iDCs) = assay: Endocytosis test (FITC-dextran uptake); assay type: cell-based, human; settings: SB225002 250 nM plus GRO-γ
Description: The endocytic activity of iMDDCs or mMDDCs was measured by analyzing the cellular uptake of FITC-dextran (40 kD, FD40S, Sigma-Aldrich) as quantified by flow cytomerty. Cells (5×10^4 cells/sample/96 well V bottom plate) were incubated in RPMI-1640 medium with 1 mg/mL FITC-dextran for 30 min at 37° C. After incubation, cells were washed twice with staining buffer to remove free reagent then fixed with 1% paraformaldehyde. The signal from FITC-dextran endocytosed by cells was analyzed by FACS. Data analysis was performed using the FlowJo version 5.7.2 software. The signal obtained for cells incubated with medium in the absence of FITC-dextran was used as negative control.

CD11b+ Gr-1+ BMDCs = assay: ARG-1 and iNOS expression in mouse BMDCs; assay type: cell-based; settings: GM-CSF/GRO-γ/SB225002 treated BMDCs
Description: Total RNA was extracted with the Trizol reagent and converted to cDNA using a ReverTra Ace set (Toyobo Life Science, Osaka, Japan), according to manufacturer's instructions. Real-time PCR analysis was performed using an ABI Prism 7900 system (Applied Biosystems, Foster City, Calif., USA). Samples were treated according to the following program: […], 94° C. for 10 min, and 40 cycles of 95° C. for 15 s and 60° C. for 1 min. Analyses were performed in triplicate. For each sample, the cycle threshold (Ct) values were determined. Results were normalized to the GAPDH gene on the same plate. The levels of mRNA expression in different cell groups were calculated using the 2ΔCt method. Intron-spanning primers specific for each gene were designed. Their sequences are as follows: human GAPDH, […] (forward primer, F, SEQ ID NO:4), […] (reverse primer, R, SEQ ID NO:5); human IL-10, […] (F, SEQ ID NO:6), […] (R, SEQ ID NO:7); human IDO, […] (F, SEQ ID NO:8), TGACCTTTGCCCCACACAT (R, SEQ ID NO:9); human matrix-metallopeptidase-9 (MMP-9), […] (F, SEQ ID NO:10), […] (R, SEQ ID NO:11); human IL-4, […] (F, SEQ ID NO:12), GCCTGTGGAACTGCTGTGC (R, SQ ID NO:13); human IL-12p40, CGGTCATCTGCCGCAAA (F, SEQ ID NO:14), […] (R, SEQ ID NO:15); human TNF-α, […] (F, SEQ ID NO:16), CAGGCAGAAGAGCGTGGTG (R, SEQ ID NO:17); human IFN-γ, […] (F, SEQ ID NO:18), […] (R, SEQ ID NO:19); human Cox2, […] (F, SEQ ID NO:20), […] (R, SEQ ID NO:21); human PD-L1, […] (F, SEQ ID NO:22), […] (R, SEQ ID NO:23); human PD-L2, […] (F, SEQ ID NO:24), […] (R, SEQ ID NO:25); human TGF-β, […] (F, SEQ ID NO:26), […] (R, SEQ ID NO:27); human IL-6, […] (F, SEQ ID NO:28), […] (R, SEQ ID NO:29); IL-1β, […] (F, SEQ ID NO:30), […] (R, SEQ ID NO:31); mouse GAPDH, GATGCAGGGATGATGTTC (F, SEQ ID NO:32), TGCACCACCAACTGCTTAG (R, SEQ ID NO:33); mouse Arginase 1(Arg-1), […] (F, SEQ ID NO:34), […] (R, SEQ ID NO:35); mouse iNOS, […] (F, SEQ ID NO:36), […] (R, SEQ ID NO:37); mouse IFN-γ, […] (F, SEQ ID NO:38), […] (R, SEQ ID NO:39).
Murine bone marrow-derived dendritic cells (BM-DCs) were harvested and differentiated into dentritic cells as previously described (Song et al., 2011). Briefly, bone marrow cells from C57BL/6 mice were cultured at a density of 2×10^5 cells/mL in petri dishes containing 10 mL of complete RPMI-1640 medium with 200 U/mL (20 ng/mL) recombinant mouse GM-CSF in the presence or absence of recombinant mouse GRO chemokine. On day 3, half of the volume of the culture medium was replaced by complete RPMI medium containing 20 ng/mL of […] combined with or without GRO. On day 6, BMDCs from the different treatment groups were collected from each dish, washed and characterized.

[2] = tested on: mature MDDCs co-cultured with allogeneic T cells; assay: MLR assay (allogeneic T-cell proliferation, [3H]-thymidine); assay type: cell-based, human; settings: SB225002 250 nM plus GRO-γ
Description: Monocyte-derived cells (3×10^4) at different stages of differentiation were irradiated at 30 Gy using an X-ray biological irradiator (X-ray R-2000, Rad Source Technologies, Inc, Alpharetta, Ga., USA) and then cultured with purified allogenic CD3 T cells (1:10) in complete culture medium in 96-well U-bottom plate. X-ray irradiated myeloid cells and allogenic T lymphocytes were placed in a humidified CO2 incubator at 37° C. After 96 hours, [^3H]-thymidine (1 μCi) was added to each well containing either monocytes-, iMDDCs-, or mMDDCs mixed with T cells, and further incubated for 16 hours. Cells were then harvested using a Filtermate 96-well harvester and radioactivity (cpm) measured as an index of cell proliferation in a Packard microplate scintillation and luminescence counter (Perkin-Elmer-Packard; Waltham, Mass., USA).

Compound | effect on CD40 expression ([1]; human iMDDCs supplemented with GRO isoform, day 7) | blocking of GRO-γ effect on endocytic activity of iDCs (immature MDDCs (iDCs)) | reversal of induction of ARG-1 and iNOS genes (CD11b+ Gr-1+ BMDCs) | blocking of GRO-γ effect on ability of mDCs to stimulate T-cell proliferation [2] | reversal of suppressive effect of GRO-γ on selected surface markers ([1]; iDCs and mDCs, SB225002 250 nM pretreatment 30 min plus GRO-γ) | DC-SIGN expression ([1]; iDCs and mDCs, addition of SB225002 with GRO-γ)
GRO-α: recombinant human GRO chemokine CXCL1 (SEQ ID NO:1), PeproTech | significant inhibitory effects | – | – | – | – | –
O=C(Nc1ccc([N+](=O)[O-])cc1O)Nc1ccccc1Br [SB225002, N-(2-Hydroxy-4-nitrophenyl)-N′-(2-bromophenyl) urea, reference compound] | – | blocked | reversed the induction | blocked | significantly reversed | not affected
